Laboratory results published in ChEMBL document CHEMBL1201862, “PubChem BioAssay data set” (2004).
The source made the active and inactive calls.

Legend:
Leucine aminopeptidase = biological target: T1, Leucine aminopeptidase (Plasmodium falciparum 3D7, UniProt Q8IL11); assay: P. falciparum M17LAP inhibitors, primary screen, biochemical, fluorogenic H-Leu-NHMec substrate, 1536-well (AID 1619); format: functional
T1 sequence (Q8IL11 whole entry): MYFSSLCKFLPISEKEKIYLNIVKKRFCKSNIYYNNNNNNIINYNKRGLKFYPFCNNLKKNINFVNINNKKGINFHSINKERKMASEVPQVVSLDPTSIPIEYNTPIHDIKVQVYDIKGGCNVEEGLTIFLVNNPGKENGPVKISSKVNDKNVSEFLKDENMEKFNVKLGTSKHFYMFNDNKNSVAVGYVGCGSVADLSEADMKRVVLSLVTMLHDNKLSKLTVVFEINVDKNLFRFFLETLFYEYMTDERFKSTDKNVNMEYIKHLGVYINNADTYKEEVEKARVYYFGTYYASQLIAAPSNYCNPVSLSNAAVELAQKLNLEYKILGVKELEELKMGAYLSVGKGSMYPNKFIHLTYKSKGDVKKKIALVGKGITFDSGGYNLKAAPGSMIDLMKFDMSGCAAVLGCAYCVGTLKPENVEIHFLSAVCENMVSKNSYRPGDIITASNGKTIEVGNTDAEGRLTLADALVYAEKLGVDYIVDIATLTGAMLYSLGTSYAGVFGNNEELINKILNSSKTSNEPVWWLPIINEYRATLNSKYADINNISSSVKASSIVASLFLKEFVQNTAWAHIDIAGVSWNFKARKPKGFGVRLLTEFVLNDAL

[1] = biological target: Induced myeloid leukemia cell differentiation protein Mcl-1 (Homo sapiens, UniProt Q07820); format: functional
H9c2 = assay: cells; format: functional, cell-based; conditions: Rattus norvegicus, H9c2, Myocardium;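 also: confirmatory concentration-response retest of ultra-high-throughput screening hits for modulation of myocardial damage; cell death induced by hydrogen peroxide oxidative stress; compound pretreatment for 60 min then peroxide exposure for 2 h; potency is for protecting the cells against peroxide damage rather than for killing them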
[2] = biological target: T2, Mannose-6-phosphate isomerase (Homo sapiens, UniProt P34949); assay: human PMI inhibitors, high substrate, primary screen, biochemical, fluorescence intensity, high mannose 6-phosphate (AID 1220)
T2 sequence (P34949 whole entry): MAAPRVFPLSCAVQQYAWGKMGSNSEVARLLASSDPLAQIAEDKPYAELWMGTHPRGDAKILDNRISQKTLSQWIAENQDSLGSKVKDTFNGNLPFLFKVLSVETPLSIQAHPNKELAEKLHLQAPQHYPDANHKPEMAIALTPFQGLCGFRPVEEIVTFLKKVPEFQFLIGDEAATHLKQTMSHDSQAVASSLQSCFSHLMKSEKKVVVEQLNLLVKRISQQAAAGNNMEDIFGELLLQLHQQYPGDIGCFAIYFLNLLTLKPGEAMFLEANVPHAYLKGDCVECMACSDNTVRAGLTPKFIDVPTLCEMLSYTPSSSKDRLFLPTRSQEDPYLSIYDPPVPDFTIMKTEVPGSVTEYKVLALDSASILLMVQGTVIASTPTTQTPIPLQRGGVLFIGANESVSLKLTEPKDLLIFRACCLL

[3] = cytotoxicity in HEK-293T cells, dose response, cytotoxicity control for BCR NF-kB inhibitor project, luminescence, B-cell screen hits (AID 489021); format: functional, cell-based;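 also: HEK-293T cells carrying an NF-kB luciferase reporter; cells exposed to compound for about 14 hours before viability readout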
Protein RecA = biological target: T3, Protein RecA (Mycobacterium tuberculosis, UniProt P9WHJ3); assay: Fluorescence Cell-Free Homogeneous Dose Retest to Identify Inhibitors of RecA-Intein Splicing Activity. [Related pubchem assays (depositor defined):AID2097, AID2223, AID489010, AID492950]; format: functional
T3 sequence (P9WHJ3 whole entry): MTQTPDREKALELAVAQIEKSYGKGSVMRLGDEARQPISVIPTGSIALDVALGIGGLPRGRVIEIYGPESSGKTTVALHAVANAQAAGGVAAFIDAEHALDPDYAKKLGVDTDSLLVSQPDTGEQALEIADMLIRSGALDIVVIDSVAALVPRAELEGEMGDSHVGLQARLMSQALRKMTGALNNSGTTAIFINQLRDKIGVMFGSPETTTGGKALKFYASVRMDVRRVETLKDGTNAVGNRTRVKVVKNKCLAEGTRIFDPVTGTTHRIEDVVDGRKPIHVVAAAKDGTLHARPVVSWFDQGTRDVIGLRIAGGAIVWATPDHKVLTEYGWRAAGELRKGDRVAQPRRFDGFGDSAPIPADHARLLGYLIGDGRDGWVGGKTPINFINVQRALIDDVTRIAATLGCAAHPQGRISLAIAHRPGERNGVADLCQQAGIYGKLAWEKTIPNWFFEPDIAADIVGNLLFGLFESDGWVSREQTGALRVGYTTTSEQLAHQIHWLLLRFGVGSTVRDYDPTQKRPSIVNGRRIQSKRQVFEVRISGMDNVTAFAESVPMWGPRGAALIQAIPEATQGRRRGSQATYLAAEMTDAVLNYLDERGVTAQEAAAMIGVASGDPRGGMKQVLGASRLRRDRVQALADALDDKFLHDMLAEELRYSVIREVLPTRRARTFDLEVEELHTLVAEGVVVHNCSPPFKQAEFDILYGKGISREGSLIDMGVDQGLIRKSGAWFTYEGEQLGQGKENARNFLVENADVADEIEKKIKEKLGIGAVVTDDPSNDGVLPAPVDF

[4] = biological target: T4, Polyadenylate-binding protein 1 (Homo sapiens, UniProt P11940); assay: PABP1 MLLE–PAM2 interaction inhibitors, dose response, miRNA deadenylation inhibitor project, biochemical, fluorescence polarization, Cy5-PAM2 peptide, secondary (AID 602260); format: functional; conditions: read-out: IC50_Mean
[5] = biological target: T5, Ubiquitin-conjugating enzyme E2 N (Homo sapiens, UniProt P61088); format: functional;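 also: Dose-response confirmation in a TR-FRET assay detecting UBC13-driven polyubiquitin chain formation, inhibition measured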
T5 sequence (P61088 whole entry): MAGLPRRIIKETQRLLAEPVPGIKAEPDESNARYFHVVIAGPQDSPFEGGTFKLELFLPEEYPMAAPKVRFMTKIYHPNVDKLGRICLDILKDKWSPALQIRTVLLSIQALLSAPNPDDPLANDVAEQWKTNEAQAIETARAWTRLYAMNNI

[6] = biological target: T4, Polyadenylate-binding protein 1; assay: PABP1 MLLE–PAM2 binding inhibitor potency, dose response, biochemical, fluorescence polarization, FITC-PAM2 peptide (AID 602259); format: functional; conditions: read-out: IC50_Mean
[7] = biological target: T6, Replicative DNA helicase DnaB (Mycobacterium tuberculosis, UniProt P9WMR3); assay: DnaB intein splicing inhibitors, dose response, biochemical, cell-free fluorescence (AID 449749); format: functional
T6 sequence (P9WMR3 whole entry): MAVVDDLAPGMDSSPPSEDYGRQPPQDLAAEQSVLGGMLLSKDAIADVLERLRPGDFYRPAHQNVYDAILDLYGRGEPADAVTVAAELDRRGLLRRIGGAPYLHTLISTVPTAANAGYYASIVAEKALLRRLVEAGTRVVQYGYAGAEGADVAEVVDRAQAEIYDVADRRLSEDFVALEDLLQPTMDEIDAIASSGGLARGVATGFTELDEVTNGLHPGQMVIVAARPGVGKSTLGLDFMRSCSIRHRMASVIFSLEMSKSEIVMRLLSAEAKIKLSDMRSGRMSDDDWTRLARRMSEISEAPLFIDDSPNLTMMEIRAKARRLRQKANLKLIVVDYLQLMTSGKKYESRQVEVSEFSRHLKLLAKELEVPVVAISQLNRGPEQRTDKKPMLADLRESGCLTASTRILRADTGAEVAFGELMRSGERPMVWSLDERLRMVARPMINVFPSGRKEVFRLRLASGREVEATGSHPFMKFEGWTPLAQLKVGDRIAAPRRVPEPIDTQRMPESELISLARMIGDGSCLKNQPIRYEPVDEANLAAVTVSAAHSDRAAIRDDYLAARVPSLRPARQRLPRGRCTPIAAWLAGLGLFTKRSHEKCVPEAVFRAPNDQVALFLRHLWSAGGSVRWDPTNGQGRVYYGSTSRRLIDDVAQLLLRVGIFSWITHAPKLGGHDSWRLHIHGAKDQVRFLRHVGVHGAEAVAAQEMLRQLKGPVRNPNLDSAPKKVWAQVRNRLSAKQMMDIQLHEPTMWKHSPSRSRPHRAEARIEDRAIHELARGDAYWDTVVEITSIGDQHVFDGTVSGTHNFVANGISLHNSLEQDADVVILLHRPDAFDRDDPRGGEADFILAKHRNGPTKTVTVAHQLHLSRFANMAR

Fatty acid synthase [8] = biological target: T7, Fatty acid synthase (Homo sapiens, UniProt P49327); assay: FAS thioesterase domain inhibitors, dose response, biochemical, kinetic fluorescence intensity (AID 624326); format: functional;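 also: rate of fluorescence rise from hydrolysis of a fluorogenic O-methyl fluorescein ester substrate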
Fatty acid synthase [9] = biological target: T7, Fatty acid synthase; assay: FAS thioesterase domain inhibitors, dose response, biochemical, endpoint fluorescence intensity, uHTS hits (AID 624327); format: functional;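 also: fluorescence from hydrolysis of an O-methyl fluorescein acyl ester substrate by the enzyme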
[10] = Luminescence Cell-Based Dose Retest to Confirm Inhibitors of Cancer Stem Cells. [Related pubchem assays (depositor defined):AID2717, AID2721]; format: functional; conditions: Homo sapiens
P388 = assay: cells; format: functional; conditions: Mus musculus
P388/ADR = assay: cells; format: functional; conditions: Mus musculus
SN12K1 = assay: cells; format: functional; conditions: Homo sapiens
Paired box protein Pax-8 = Paired box protein Pax-8 (Homo sapiens, UniProt Q06710); assay: inhibitors of PAX8-driven TPO luciferase reporter, dose response, RMG-I cells, cherry-pick (AID 687027); format: functional, cell-based;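 also: luciferase reporter driven by Pax8 target thyroperoxidase promoter measured by SteadyGlo luminescence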
[11] = cytotoxicity in OVCAR8 ovarian cancer cells, dose response, PAX8 project, cell-based, plate reader, dry powder samples (AID 743197); format: functional; conditions: OVCAR-8
[12] = NIH:OVCAR-3 ovarian cancer cell cytotoxicity, dose response, PAX8 inhibitor project, plate reader, dry powder samples (AID 743044); format: functional, cell-based

Sequence of Induced myeloid leukemia cell differentiation protein Mcl-1 (Q07820 whole entry): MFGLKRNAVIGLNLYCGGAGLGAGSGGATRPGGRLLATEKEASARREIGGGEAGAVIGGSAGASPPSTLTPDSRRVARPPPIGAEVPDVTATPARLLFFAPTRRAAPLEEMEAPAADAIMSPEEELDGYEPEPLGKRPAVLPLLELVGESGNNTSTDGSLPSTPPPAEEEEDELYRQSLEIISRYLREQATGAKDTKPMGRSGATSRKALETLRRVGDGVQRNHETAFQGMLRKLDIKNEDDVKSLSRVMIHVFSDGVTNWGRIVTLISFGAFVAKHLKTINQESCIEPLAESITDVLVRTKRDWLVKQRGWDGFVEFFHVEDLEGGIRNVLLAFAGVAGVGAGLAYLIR
T7 sequence (P49327 whole entry, the tested form may be a part): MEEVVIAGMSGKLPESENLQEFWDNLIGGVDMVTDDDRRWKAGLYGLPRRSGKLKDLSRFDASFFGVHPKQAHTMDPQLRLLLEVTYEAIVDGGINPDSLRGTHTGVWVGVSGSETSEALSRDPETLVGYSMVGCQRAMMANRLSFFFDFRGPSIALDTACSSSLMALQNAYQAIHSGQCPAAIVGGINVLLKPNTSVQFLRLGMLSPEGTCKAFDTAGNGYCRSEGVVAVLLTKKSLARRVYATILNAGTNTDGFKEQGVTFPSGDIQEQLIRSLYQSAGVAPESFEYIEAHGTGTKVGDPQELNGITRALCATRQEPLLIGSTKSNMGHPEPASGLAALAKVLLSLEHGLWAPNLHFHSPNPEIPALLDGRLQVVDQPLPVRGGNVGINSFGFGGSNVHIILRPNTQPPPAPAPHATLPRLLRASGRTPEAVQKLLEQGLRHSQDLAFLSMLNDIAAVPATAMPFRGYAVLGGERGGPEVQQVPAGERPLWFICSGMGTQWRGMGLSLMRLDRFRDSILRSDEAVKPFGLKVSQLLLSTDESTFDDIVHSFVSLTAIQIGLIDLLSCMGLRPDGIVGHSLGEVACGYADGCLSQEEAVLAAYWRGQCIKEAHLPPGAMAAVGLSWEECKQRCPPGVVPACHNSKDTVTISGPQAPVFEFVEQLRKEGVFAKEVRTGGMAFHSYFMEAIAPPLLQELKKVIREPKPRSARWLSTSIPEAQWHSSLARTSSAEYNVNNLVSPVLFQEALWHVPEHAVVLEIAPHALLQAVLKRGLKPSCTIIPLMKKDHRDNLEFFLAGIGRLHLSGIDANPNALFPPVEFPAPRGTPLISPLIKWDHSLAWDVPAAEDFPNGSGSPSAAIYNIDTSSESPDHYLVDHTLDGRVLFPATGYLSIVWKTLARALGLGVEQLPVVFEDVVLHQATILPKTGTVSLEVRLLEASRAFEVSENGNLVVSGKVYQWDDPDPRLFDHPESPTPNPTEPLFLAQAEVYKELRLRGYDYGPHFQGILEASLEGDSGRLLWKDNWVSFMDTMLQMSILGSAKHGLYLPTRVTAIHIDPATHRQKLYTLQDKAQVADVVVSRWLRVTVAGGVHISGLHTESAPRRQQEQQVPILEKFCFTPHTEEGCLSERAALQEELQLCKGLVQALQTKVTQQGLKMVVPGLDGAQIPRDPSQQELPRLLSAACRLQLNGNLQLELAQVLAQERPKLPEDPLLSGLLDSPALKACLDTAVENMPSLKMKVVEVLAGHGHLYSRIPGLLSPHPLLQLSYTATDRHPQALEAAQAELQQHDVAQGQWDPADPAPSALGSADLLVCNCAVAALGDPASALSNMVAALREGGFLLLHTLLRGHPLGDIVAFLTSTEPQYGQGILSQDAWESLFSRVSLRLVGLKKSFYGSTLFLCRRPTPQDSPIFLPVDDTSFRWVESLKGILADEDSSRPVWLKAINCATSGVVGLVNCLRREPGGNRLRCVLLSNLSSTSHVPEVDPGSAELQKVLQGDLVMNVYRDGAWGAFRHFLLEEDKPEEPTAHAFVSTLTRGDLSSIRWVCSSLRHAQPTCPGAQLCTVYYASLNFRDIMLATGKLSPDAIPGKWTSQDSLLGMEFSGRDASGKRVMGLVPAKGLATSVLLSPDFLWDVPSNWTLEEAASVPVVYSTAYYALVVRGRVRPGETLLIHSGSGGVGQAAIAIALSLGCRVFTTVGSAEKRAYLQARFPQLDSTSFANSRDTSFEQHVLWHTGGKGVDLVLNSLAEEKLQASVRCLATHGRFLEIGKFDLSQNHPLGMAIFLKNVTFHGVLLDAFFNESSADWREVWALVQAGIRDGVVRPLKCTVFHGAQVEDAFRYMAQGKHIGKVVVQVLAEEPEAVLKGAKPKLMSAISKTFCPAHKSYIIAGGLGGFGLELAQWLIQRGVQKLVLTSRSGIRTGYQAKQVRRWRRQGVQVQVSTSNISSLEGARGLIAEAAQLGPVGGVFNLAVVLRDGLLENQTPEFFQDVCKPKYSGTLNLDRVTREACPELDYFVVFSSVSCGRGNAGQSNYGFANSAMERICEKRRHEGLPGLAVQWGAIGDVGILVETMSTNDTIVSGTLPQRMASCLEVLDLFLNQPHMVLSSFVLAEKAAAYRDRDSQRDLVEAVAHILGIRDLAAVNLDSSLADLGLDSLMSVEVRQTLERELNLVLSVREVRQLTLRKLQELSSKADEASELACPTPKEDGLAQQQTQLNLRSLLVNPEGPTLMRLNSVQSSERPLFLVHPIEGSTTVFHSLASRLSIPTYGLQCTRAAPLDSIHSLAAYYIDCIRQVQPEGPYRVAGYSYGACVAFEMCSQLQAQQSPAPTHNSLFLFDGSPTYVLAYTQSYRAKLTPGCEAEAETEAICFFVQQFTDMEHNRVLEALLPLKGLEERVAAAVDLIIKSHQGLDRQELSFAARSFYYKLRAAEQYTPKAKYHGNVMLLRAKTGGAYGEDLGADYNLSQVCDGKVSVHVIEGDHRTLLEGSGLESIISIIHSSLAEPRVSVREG
T4 sequence (P11940 whole entry): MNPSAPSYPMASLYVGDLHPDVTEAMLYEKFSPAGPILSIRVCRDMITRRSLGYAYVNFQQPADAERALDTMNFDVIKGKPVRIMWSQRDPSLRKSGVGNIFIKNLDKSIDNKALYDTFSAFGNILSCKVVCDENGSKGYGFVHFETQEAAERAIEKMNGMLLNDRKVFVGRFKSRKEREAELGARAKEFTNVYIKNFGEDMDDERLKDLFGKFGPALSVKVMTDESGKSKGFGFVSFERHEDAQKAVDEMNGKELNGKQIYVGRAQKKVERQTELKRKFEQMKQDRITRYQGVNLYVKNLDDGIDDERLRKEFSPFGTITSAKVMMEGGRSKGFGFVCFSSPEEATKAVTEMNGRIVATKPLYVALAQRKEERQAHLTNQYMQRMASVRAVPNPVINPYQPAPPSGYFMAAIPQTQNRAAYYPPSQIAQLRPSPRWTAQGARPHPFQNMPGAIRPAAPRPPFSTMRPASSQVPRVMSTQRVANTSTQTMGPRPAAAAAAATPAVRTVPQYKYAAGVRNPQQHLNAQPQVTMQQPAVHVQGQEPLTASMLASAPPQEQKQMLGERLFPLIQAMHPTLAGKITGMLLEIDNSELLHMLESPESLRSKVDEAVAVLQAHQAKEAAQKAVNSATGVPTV
Sequence of Paired box protein Pax-8 (Q06710 whole entry): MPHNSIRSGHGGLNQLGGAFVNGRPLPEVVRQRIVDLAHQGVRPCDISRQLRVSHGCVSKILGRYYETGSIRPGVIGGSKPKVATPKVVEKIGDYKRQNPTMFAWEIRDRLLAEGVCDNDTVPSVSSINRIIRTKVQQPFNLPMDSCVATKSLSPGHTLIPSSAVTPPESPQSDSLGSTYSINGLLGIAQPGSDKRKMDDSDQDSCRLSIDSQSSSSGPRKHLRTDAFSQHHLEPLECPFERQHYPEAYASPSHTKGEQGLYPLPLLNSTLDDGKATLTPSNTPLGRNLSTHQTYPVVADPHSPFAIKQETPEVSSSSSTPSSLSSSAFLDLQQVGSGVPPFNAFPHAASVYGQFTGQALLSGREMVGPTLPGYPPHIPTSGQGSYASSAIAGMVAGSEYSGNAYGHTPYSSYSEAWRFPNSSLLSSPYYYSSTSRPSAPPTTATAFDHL

O=C(O)Cn1nnnc1SCC(=O)Nc1ccc(OC(F)(F)F)cc1
IC50 (Leucine aminopeptidase): 5.22 µM (active)

CC(C)Oc1ccc(C(CC(=O)O)NC(=O)CSc2nnc[nH]2)cc1 (configuration not stated)
IC50 (Leucine aminopeptidase): 47.4 µM (active)

COc1ccc(NC(=O)CSc2ncnc3c2sc2ccccc23)c(OC)c1
IC50 [1]: 10.3 µM (not active)

CCCOc1ccc(C(=O)Nc2ccc(N(C)C)cc2)cc1
IC50 [1]: 3.27 µM (not active)

CCC(C)Nc1ncnc2c1cnn2Cc1ccc(Cl)cc1 (configuration not stated)
IC50 (H9c2): > 79 µM (inactive)

Oc1ccc(N2CCN(c3ncnc4sc5c(c34)CCC5)CC2)cc1
IC50 [1]: 4.31 µM (active)

CNc1c([N+](=O)[O-])ccc2c1=NC1(CCCCC1)[N+]=2[O-]
IC50 [2]: > 50 µM (not active)

COc1ccc(-c2noc(N3CCC(C(=O)Nc4ccc(OC)c(OC)c4)CC3)n2)cc1
IC50 [3]: > 80 µM (inactive)

O=C(/C=C\c1cn(-c2ccccc2)nc1-c1ccc2c(c1)OCCO2)N1CCOCC1
IC50 (H9c2): > 79 µM (inactive)

CCN=C(S)N=Nc1c(O)[nH]c2ccc([N+](=O)[O-])cc12
EC50 (Protein RecA): 56.6 µM (active)
IC50 [4]: > 66 µM (inactive)
IC50 [5]: > 20 µM (inactive)
IC50 [6]: > 66 µM (inactive)
AC50 [7]: > 380 µM (inactive)

O=[N+]([O-])c1ccc(Sc2nnc(-c3ccccc3)[nH]2)nc1
IC50 (Fatty acid synthase [8]): 10.6 µM (active)
IC50 (Leucine aminopeptidase): 31.5 µM (active)
IC50 (Fatty acid synthase [9]): 10.9 µM (active)

Cc1ccc(-c2[nH]c(C(=O)NCC3CCCO3)cc3c4ccccc4nc2-3)cc1 (configuration not stated)
IC50 [3]: > 80 µM (inactive)

CCOc1ccc(N2C(=O)CC(SCCN)C2=O)cc1 (configuration not stated)
IC50 (Leucine aminopeptidase): 23.6 µM (active)

COc1cc(OC)cc(C(=O)Nc2ccc(C(=O)Nc3ccccc3OC)cc2)c1
IC50 (H9c2): > 79 µM (inactive)

O=C(NNC(=O)C12CC3CC(CC(Br)(C3)C1)C2)c1ccccc1F
IC50 [3]: > 80 µM (inactive)

O=C(COC(=O)c1cc(O)nc(O)n1)Nc1cccc(Cl)c1
IC50 [5]: > 20 µM (inactive)

O=C(Nc1cccc(/C=C/c2ccccn2)c1)c1ccc(-n2cncn2)cc1
IC50 (H9c2): 38.2 µM (inactive)

COc1cccc(-c2sc3ccccc3c2-c2ccc(OCCN3CCCCC3)cc2)c1
IC50 [5]: > 20 µM (inactive)
AC50 [10]: 1.43 µM (active)

COc1cc(/C=C/C(=O)OCC(=O)N2c3ccccc3NC(=O)C2(C)C)cc(OC)c1OC
IC50 (H9c2): > 79 µM (inactive)

C[C@H]1Cn2cnc(C(=O)N[C@@H](Cc3c[nH]c4ccccc34)C(=O)OC(C)(C)C)c2C(=O)N1
IC50 (H9c2): 18 µM (active)

O=C(CCl)NNC1=Nc2ccc(Cl)cc2SC1
GI50 (P388): 0.236 µM (active)
GI50 (P388/ADR): 0.627 µM (active)
GI50 (SN12K1): 3.45 µM (inactive)

N#C/C(=C\c1ccncc1)c1csc2ccccc12
GI50 (P388): 19.1 µM (inactive)
GI50 (P388/ADR): 6.49 µM (inactive)
GI50 (SN12K1): 29.2 µM (inactive)

C[C@@H]1CN([C@H](C)CO)C(=O)c2cc(NS(=O)(=O)c3ccc(F)cc3)ccc2O[C@@H](C)CCCCO[C@@H]1CN(C)CC1CCCCC1
AC50 (Paired box protein Pax-8): 13 µM (active)
AC50 [11]: > 70 µM (inactive)
AC50 [12]: 44 µM (active)

C[C@@H]1CCCCO[C@H](CN(C)C(=O)Nc2ccc(C(F)(F)F)cc2)[C@@H](C)CN([C@@H](C)CO)C(=O)c2cc(NC(=O)Nc3ccc(C(F)(F)F)cc3)ccc2O1
AC50 (Paired box protein Pax-8): 2.32 µM (active)
AC50 [11]: 32.8 µM (active)
AC50 [12]: 19.6 µM (active)

C/C=C1/C(=O)O[C@]23C=C[C@@H]4C(C(=O)OC)=CO[C@H](O[C@@H]12)[C@@H]43 [PLUMERICIN]
GI50 (P388): 0.105 µM (active)
GI50 (P388/ADR): 0.0853 µM (active)
GI50 (SN12K1): 1.09 µM (active)
